In US8623885B2, “Fused tricyclic dual inhibitors of CDK 4/6 and FLT3” (Amgen Inc., priority 2011, dated 2014):
“Also recorded” adds a separate entry of the source.

What was measured:
[1] = target: FLT3 enzyme (GST-FLT3 fusion) (Homo sapiens (Human), UniProt P36888); test: FLT3 HTRF kinase assay; assay type: biochemical; details: 116 μM ATP
Procedure: The FLT3 inhibitory activity of the CDK4/6-FLT3 inhibitors was determined with a HTRF kinase assay. The FLT3 enzyme (GST-FLT3 fusion) was purchased from Carna Biosciences. An ULight-labeled synthetic peptide derived from human Janus kinase 1 (aa1015-1027, ULight-JAK1, PerkinElmer) was utilized as the phosphoacceptor substrate. The assay was conducted in a 384-well white OptiPlate (PerkinElmer). The 20 μL reaction mixture contained 50 nM ULight-JAK1, 116 μM ATP, 0.0385 ng/μL FLT3 and dilutions of test compounds in the kinase buffer (50 mM Hepes, pH 7.6, 1 mM EGTA, 10 mM MgCl2, 2 mM DTT, and 0.005% Tween 20). The reaction was allowed to proceed for 1 hour at room temperature and was stopped by adding 20 μL of 10 mM EDTA, 2 nM LANCE® Eu-W1024 anti-phospho-tyrosine antibody in LANCE® detection buffer (PerkinElmer). The plates were incubated at room temperature for 2 hours after addition of detection reagents and then read on an Envision multimode reader (PerkinElmer).
(§1) IC50 values of the compounds in the above assays were determined by non-linear regression analysis using Prism (GraphPad Software).

MOLM13 cells = test: [14C]-thymidine incorporation cell proliferation assay, MOLM13; assay type: cell-based, human; details: Homo sapiens, MOLM-13, 72 hour incubation
Procedure: The cell proliferation inhibition potency of the CDK4/6-FLT3 inhibitors was determined by using a [^14C]-thymidine incorporation assay. Exponentially growing cells (MOLM-13, Colo-205, etc.) were seeded in a 96-well Cytostar T plate (GE Healthcare Biosciences) at a density of 5×10^3 cells/well and incubated overnight. Serially diluted compounds and 0.1 μCi of [^14C]-thymidine (GE Healthcare Biosciences) were added to each well on the following day. After 72 hour incubation, isotope incorporation was determined with a β plate counter (Wallac). MOLM13 is a human AML tumor cell line expressing FLT3, FLT3^ITD and wild type Rb.
as §1

[2] = system: MOLM13 subcutaneous xenograft tumors; test: Tumor growth inhibition in AML MOLM13 xenograft tumors; assay type: in vivo, CrTac:NCR-Foxn1nu nude mice
Procedure: The AML cell line, MOLM13, (obtained from American Type Culture Collection, Manassas, Va., USA) was cultured in RPMI-1640 cell growth medium containing 10% fetal bovine serum (commercially obtained from Invitrogen, Carlsbad, Calif. USA). This cell line expresses CDK4/6, one copy of wild type FLT3 kinase and one copy of FLT3-ITD, which results in constitutive activation of FLT3 activity. Therefore, the activity of Example 5 against both FLT3 and CDK4/6 can be tested in this tumor cell. Tumor cells (7.5 million) were injected subcutaneously onto the right flank of CrTac:NCR-Foxn1^nu nude mice (commercially available from Taconic Farms, Inc, Hudson, N.Y. USA). Tumors were allowed to grow for 6 days. […] Tumors were measured every other day using two-dimensional calipers and tumor volumes were estimated using the equation Width^2×Length×0.5. […] Statistical significance was evaluated using RMANOVA on log transformed tumor volume with baseline as covariate.

CDK4/Cyclin D1 = CDK4/Cyclin D1 (Homo sapiens (Human), UniProt P11802); test: CDK4 filtration kinase assay; assay type: biochemical; details: CDK4/Cyclin D1, Rb fragment substrate, [33P]-ATP filtration assay
CDK4/Cyclin D1, sequence (P11802 whole entry, the tested form may be a part): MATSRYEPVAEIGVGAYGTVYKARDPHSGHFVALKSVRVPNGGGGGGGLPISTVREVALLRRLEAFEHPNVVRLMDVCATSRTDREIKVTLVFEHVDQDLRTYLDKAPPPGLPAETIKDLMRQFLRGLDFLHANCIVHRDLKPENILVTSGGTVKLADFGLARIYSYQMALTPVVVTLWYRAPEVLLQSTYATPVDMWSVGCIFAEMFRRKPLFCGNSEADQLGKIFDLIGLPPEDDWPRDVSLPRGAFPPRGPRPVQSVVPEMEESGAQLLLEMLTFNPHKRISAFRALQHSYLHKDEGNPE
CDK4/Cyclin D1, sequence (P24385 whole entry partner, the tested form may be a part): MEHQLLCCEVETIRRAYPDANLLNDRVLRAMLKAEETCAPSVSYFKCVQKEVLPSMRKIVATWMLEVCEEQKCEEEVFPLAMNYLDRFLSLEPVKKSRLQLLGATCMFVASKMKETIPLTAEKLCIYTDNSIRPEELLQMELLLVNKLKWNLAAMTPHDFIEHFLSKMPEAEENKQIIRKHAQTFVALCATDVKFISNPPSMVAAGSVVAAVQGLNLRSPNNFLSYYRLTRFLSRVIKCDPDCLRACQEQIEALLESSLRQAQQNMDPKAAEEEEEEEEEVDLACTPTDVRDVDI
Procedure: The CDK4 and CDK1 inhibitory activity of the CDK4/6-FLT3 inhibitors was determined with a filtration kinase assay. The compounds, kinase and substrate diluted in the kinase buffer (20 mM Tris, pH7.4, 50 mM NaCl, 1 mM DTT, 0.1% BSA) were sequentially added to a 96-well Multiscreen HTS filtration plate (Millipore). The final 100 μL reaction mixture in each well contained 0.3 μg of CDK4/Cyclin D1 or CDK1/Cyclin B (Cell Signaling Technology), 1 μg of Rb fragment (aa773-928, Millipore) for the CDK4 assay or 5 μg of histone H1 for the CDK1 assay and 1 μCi of [^33P]-ATP. The mixture was incubated at room temperature for 1 hour. The proteins in the reaction were then precipitated and washed with cold TCA solution using an aspiration/filtration vacuum system. The plates were dried at room temperature, and the retained radioactivity was measured by scintillation counting.
as §1

[3] = system: Colo205 human colon carcinoma xenograft tumors; test: Tumor growth inhibition in Colo205 xenograft tumors; assay type: in vivo, CrTac:NCR-Foxn1nu nude mice
Procedure: The activity of Example 5 was evaluated in the human colon carcinoma, Colo205, xenograft tumor model. This cell line expresses CDK4/6 but not FLT3. Therefore, this system will measure the activity of Example 5 against CDK4/6. Colo205 cells (obtained from American Type Culture Collection, Manassas, Va., USA) were cultured in DMEM cell growth medium containing 10% fetal bovine serum (commercially obtained from Invitrogen, Carlsbad, Calif. USA). Two million cells were innoculated on the right flank of CrTac:NCR-Foxn1^nu nude mice (commercially available from Taconic Farms, Inc, Hudson, N.Y. USA) and allowed to grow for 13 days. Mice were then distributed into groups of 10 mice based on ranking of initial tumor volume to achieve groups in which the average tumor size was 170 mm^3 Example 5 was formulated in 2% HPMC (Hypermellose; HY122-13; commercially available from Spectrum Chemical Manufacturing Gardena, Calif. USA)/1% Tween-80 (Crillet 4 HP; commercially available from Croda, Inc Edison, N.J. USA) and dosed daily or twice daily 6 hours apart for a total of 10 days with 12.5 mg/kg, 25 mg/kg, 37.5 mg/kg, or 50 mg/kg. Tumors were measured every other day using two-dimensional calipers and tumor volumes were estimated using the equation Width^2×Length×0.5. […] Statistical significance was evaluated using RMANOVA on log transformed tumor volume with baseline as covariate.

neointima formation = details: animal models; cited from earlier work

FLT3 enzyme (GST-FLT3 fusion), sequence (P36888 27-993): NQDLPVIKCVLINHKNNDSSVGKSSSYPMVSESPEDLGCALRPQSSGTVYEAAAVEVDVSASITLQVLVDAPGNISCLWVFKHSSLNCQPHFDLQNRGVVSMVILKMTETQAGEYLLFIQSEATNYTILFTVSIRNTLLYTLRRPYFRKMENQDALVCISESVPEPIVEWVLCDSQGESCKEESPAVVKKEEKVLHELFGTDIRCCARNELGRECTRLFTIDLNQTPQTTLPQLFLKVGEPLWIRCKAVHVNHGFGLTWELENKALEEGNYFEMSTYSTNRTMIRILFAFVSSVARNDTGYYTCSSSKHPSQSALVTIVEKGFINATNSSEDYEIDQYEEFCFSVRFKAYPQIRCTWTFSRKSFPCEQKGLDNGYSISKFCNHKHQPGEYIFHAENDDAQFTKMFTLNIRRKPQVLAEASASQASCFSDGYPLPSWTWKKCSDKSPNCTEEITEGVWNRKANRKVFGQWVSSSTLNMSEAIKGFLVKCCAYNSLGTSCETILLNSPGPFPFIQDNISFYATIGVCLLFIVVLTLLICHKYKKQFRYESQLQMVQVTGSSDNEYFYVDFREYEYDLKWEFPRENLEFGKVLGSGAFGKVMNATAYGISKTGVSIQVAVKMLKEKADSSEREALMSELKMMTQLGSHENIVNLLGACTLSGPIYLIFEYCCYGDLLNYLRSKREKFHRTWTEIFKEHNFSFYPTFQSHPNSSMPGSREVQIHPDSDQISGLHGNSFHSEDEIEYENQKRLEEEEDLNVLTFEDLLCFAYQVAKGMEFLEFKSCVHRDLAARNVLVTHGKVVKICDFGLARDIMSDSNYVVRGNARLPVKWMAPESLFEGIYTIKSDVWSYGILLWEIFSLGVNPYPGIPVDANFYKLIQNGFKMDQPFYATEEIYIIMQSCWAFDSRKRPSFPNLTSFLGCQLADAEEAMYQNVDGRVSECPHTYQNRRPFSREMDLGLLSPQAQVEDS

| SMILES | IC50 [1] [nM] | IC50 (MOLM13 cells) [nM] | IC50 (CDK4/Cyclin D1) [nM] | inhibition of tumor growth (tumor volume) ([2]; 6.25-150 mg/kg, twice daily (BID), 10 days) | tumor volume versus vehicle treated group (RMANOVA) ([2]; all doses) | inhibition of tumor growth (tumor volume) ([3]; 12.5-50 mg/kg, twice daily (BID), 10 days) | tumor volume versus vehicle treated group (RMANOVA) ([3]; all doses) | inhibition of neointima formation (neointima formation) |
| --- | --- | --- | --- | --- | --- | --- | --- | --- |
| C[C@H]1CC[C@H](n2c3cnccc3c3cnc(Nc4ccc5c(n4)CCN(C(=O)CO)C5)nc32)CC1 [Example 5, 2-hydroxy-1-(2-((9-((1r,4r)-4-methylcyclohexyl)-9H-pyrido[4′,3′:4,5]pyrrolo[2,3-d]pyrimidin-2-yl)amino)-7,8-dihydro-1,6-naphthyridin-6(5H)-yl)ethanone] | 1.5 | 19 | 2.4 | dose dependent anti-tumor activity; also recorded: Dose-dependent inhibition of tumor growth | statistically different from the vehicle treated group | dose dependent anti-tumor activity; also recorded: Dose-dependent inhibition of tumor growth | statistically different from the vehicle treated group | – |
| COc1ccc(CNc2nc(N(CCO)CCO)nc3c2ncn3C(C)C)cc1 [CVT-313] | – | – | – | – | – | – | – | significant inhibition of neointima formation |
| C[C@H]1CC[C@H](n2c3cnccc3c3cnc(Nc4cc5c(cn4)CCNC5)nc32)CC1 [Example 11, 9-((1r,4r)-4-Methylcyclohexyl)-N-(5,6,7,8-tetrahydro-2,6-naphthyridin-3-yl)-9H-pyrido[4′,3′:4,5]pyrrolo[2,3-d]pyrimidin-2-amine] | 73.7 | > 3000 | 257 | – | – | – | – | – |
| C[C@H]1CC[C@H](n2c3cnccc3c3cnc(Nc4ccc5c(n4)CCN(C(=O)C(=O)O)C5)nc32)CC1 [Example 6, 2-(2-((9-((1r,4r)-4-Methylcyclohexyl)-9H-pyrido[4′,3′:4,5]pyrrolo[2,3-d]pyrimidin-2-yl)amino)-7,8-dihydro-1,6-naphthyridin-6(5H)-yl)-2-oxoacetic acid] | 3.3 | 46 | 120 | – | – | – | – | – |

The next lines start with results.

| IC50 [1] [nM] | IC50 (MOLM13 cells) [nM] | IC50 (CDK4/Cyclin D1) [nM] | SMILES | inhibition of tumor growth (tumor volume) ([2]; 6.25-150 mg/kg, twice daily (BID), 10 days) | tumor volume versus vehicle treated group (RMANOVA) ([2]; all doses) | inhibition of tumor growth (tumor volume) ([3]; 12.5-50 mg/kg, twice daily (BID), 10 days) | tumor volume versus vehicle treated group (RMANOVA) ([3]; all doses) | inhibition of neointima formation (neointima formation) |
| --- | --- | --- | --- | --- | --- | --- | --- | --- |
| 1.4 | 23.9 | 16.5 | C[C@H]1CC[C@H](n2c3cnccc3c3cnc(Nc4ccc5c(n4)C(O)CNC5)nc32)CC1 (some centres unmarked) [Example 16, 2-((9-((1r,4r)-4-Methylcyclohexyl)-9H-pyrido[4′,3′:4,5]pyrrolo[2,3-d]pyrimidin-2-yl)amino)-5,6,7,8-tetrahydro-1,6-naphthyridin-8-ol] | – | – | – | – | – |
| 3.2 | 10.6 | 4.4 | CC(=O)N1Cc2ccc(Nc3ncc4c5ccncc5n([C@H]5CC[C@H](C)CC5)c4n3)nc2C(C)C1 (some centres unmarked) [Example 14, 1-(8-Methyl-2-((9-((1r,4r)-4-methylcyclohexyl)-9H-pyrido[4′,3′:4,5]pyrrolo[2,3-d]pyrimidin-2-yl)amino)-7,8-dihydro-1,6-naphthyridin-6(5H)-yl)ethanone] | – | – | – | – | – |
